Values after ≈ are worked out from the molar mass of the structure shown. Values joined by “and” are separate entries in the source; they are usually repeats but may differ in a detail not shown here. Identical values can stand only once. Blank lines part the entries; values can stand above or below the molecule they belong to.
Tests used:
Assay in all cases: ≥ marks a high value that may be exact or a test limit, other limits are often not marked, values filed in µg/mL are converted to µM
[1] = tested on: Aeromonas caviae IP67-16T
[2] = tested on: Aspergillus fumigatus IP1025-70
[3] = tested on: Aspergillus niger IP218-53
[4] = tested on: Candida albicans IP884-65
[5] = tested on: Cryptococcus neoformans IP960-67
[6] = tested on: Enterococcus faecalis IP103214
Escherichia coli IP76-24 = tested on: Escherichia coli IP76-24
[7] = tested on: Nocardia brasiliensis IP16-80
[8] = tested on: Saccharomyces cerevisiae IP118079
[9] = tested on: Staphylococcus aureus IP76-25
[10] = tested on: Trichophyton simii IP1063-74
Bacillus subtilis = tested on: Bacillus subtilis
Candida albicans = tested on: Candida albicans
Cryptococcus neoformans = tested on: Cryptococcus neoformans
Escherichia coli = tested on: Escherichia coli
Pseudomonas putida = tested on: Pseudomonas putida
Saccharomyces cerevisiae = tested on: Saccharomyces cerevisiae
Salmonella typhimurium = tested on: Salmonella typhimurium
Serratia sp. = tested on: Serratia sp.
Staphylococcus aureus = tested on: Staphylococcus aureus
Streptococcus mutans = tested on: Streptococcus mutans
[11] = tested on: Acinetobacter baumannii ATCC 19606
Acinetobacter baumannii = tested on: Acinetobacter baumannii
[12] = tested on: Bacillus subtilis ATCC 21332
[13] = tested on: Enterobacter cloacae ATCC 13047
Enterobacter cloacae = tested on: Enterobacter cloacae
[14] = tested on: Enterococcus faecium ATCC 29212
Enterococcus faecium = tested on: Enterococcus faecium
[15] = tested on: Escherichia coli ATCC 25922
[16] = tested on: Klebsiella aerogenes ATCC 49701
Klebsiella aerogenes = tested on: Klebsiella aerogenes
[17] = tested on: Klebsiella oxytoca ATCC 43086
Klebsiella oxytoca = tested on: Klebsiella oxytoca
[18] = tested on: Klebsiella pneumoniae ATCC 700603
Klebsiella pneumoniae = tested on: Klebsiella pneumoniae
[19] = tested on: Proteus mirabilis ATCC 12453
Proteus mirabilis = tested on: Proteus mirabilis
[20] = tested on: Pseudomonas aeruginosa ATCC 15442
Pseudomonas aeruginosa = tested on: Pseudomonas aeruginosa
[21] = tested on: Raoultella ornithinolytica ATCC 31898
[22] = tested on: Raoultella ornithinolytica
[23] = tested on: Serratia marcescens ATCC 14041
Serratia marcescens = tested on: Serratia marcescens
[24] = tested on: Staphylococcus aureus ATCC 29213
[25] = tested on: Staphylococcus epidermidis ATCC 12228
[26] = tested on: Staphylococcus epidermidis
[27] = tested on: Staphylococcus hominis ATCC 29970
Staphylococcus hominis = tested on: Staphylococcus hominis
[28] = tested on: Stenotrophomonas maltophilia ATCC 13637
[29] = tested on: Stenotrophomonas maltophilia
Streptococcus agalactiae = tested on: Streptococcus agalactiae
[30] = tested on: Bacillus subtilis PCI 219
[31] = tested on: Escherichia coli NIHJ JC-2
[32] = tested on: Pseudomonas aeruginosa U-31
[33] = tested on: Staphylococcus aureus FDA 209P

MIC [1]: 6 µM (≈ 8.15 µg/mL)
MIC [2]: ≥ 90 µM
MIC [3]: ≥ 90 µM
MIC [4]: ≥ 40 µM
MIC [5]: 6 µM (≈ 8.15 µg/mL)
MIC [6]: 6 µM (≈ 8.15 µg/mL)
MIC (Escherichia coli IP76-24): 6 µM (≈ 8.15 µg/mL)
MIC [7]: ≥ 150 µM
MIC [8]: 20 µM (≈ 27.2 µg/mL)
MIC [9]: ≥ 150 µM
MIC [10]: ≥ 70 µM
Compound: CC[C@H](C)[C@H](NC(=O)CNC(=O)[C@H](CCCCN)NC(=O)[C@H](CC(C)C)NC(=O)[C@H](CCSC)NC(=O)[C@H](CC(N)=O)NC(=O)[C@H](CCCCN)NC(=O)[C@H](Cc1c[nH]c2ccccc12)NC(=O)[C@H](CC(C)C)NC(=O)[C@H](C)N)C(=O)NCC(=O)N[C@@H](CCCCN)C(N)=O [ALWKNMLKGIGK]

MIC (Bacillus subtilis): 16.5 µM (≈ 50 µg/mL)
MIC (Candida albicans): 33 µM (≈ 100 µg/mL)
MIC (Cryptococcus neoformans): ≥ 33 µM
MIC (Escherichia coli): 16.5 µM (≈ 50 µg/mL)
MIC (Pseudomonas putida): ≥ 33 µM
MIC (Saccharomyces cerevisiae): 3.95 µM (≈ 12 µg/mL)
MIC (Salmonella typhimurium): 6.59 µM (≈ 20 µg/mL)
MIC (Serratia sp.): ≥ 65.9 µM
MIC (Staphylococcus aureus): 33 µM (≈ 100 µg/mL)
MIC (Streptococcus mutans): 16.5 µM (≈ 50 µg/mL)
Compound: CC[C@H](C)[C@H](NC(=O)[C@H](CO)NC(=O)[C@H](CCCCN)NC(=O)[C@H](Cc1ccccc1)NC(=O)[C@H](CCCCN)NC(=O)[C@H](CCCCN)NC(=O)[C@H](CC(C)C)NC(=O)[C@@H]1CCCN1C(=O)[C@@H](NC(=O)[C@H](CCCCN)NC(=O)[C@@H](NC(=O)[C@@H](NC(=O)[C@H](C)N)C(C)C)C(C)C)C(C)C)C(=O)N[C@@H](CCCN=C(N)N)C(=O)N[C@@H](CCC(=O)O)C(=O)N[C@H](C(=O)N[C@@H](CCSC)C(=O)N[C@@H](CCCCN)C(=O)N[C@@H](CCC(=O)O)C(=O)N[C@@H](CCCCN)C(=O)NCC(=O)N[C@@H](CC(C)C)C(=O)N[C@@H](CC(C)C)C(=O)N[C@@H](CCC(=O)O)C(=O)N[C@@H](CC(=O)O)C(=O)N[C@@H](Cc1ccccc1)C(=O)O)[C@@H](C)O [AVVKVPLKKFKSIRETMKEKGLLEDF]

MIC [11]: > 52.9 µM
MIC (Acinetobacter baumannii): ≥ 52.9 µM
MIC [12]: 3.3 µM (≈ 7.99 µg/mL)
MIC [13]: 3.3 µM (≈ 7.99 µg/mL)
MIC (Enterobacter cloacae): 4.67 µM (≈ 11.3 µg/mL)
MIC [14]: 26.4 µM (≈ 63.9 µg/mL)
MIC (Enterococcus faecium): ≥ 37.4 µM
MIC [15]: 2.34 µM and 1.6 µM
MIC (Escherichia coli): 2.34 µM (≈ 5.65 µg/mL)
MIC [16]: 1.65 µM (≈ 4 µg/mL)
MIC (Klebsiella aerogenes): 1.65 µM (≈ 4 µg/mL)
MIC [17]: 3.3 µM (≈ 7.99 µg/mL)
MIC (Klebsiella oxytoca): 3.3 µM (≈ 7.99 µg/mL)
MIC [18]: 3.3 µM (≈ 7.99 µg/mL)
MIC (Klebsiella pneumoniae): 2.34 µM (≈ 5.65 µg/mL)
MIC [19]: ≥ 52.9 µM
MIC (Proteus mirabilis): ≥ 52.9 µM
MIC [20]: ≥ 52.9 µM
MIC (Pseudomonas aeruginosa): > 52.9 µM
MIC [21]: 3.3 µM (≈ 7.99 µg/mL)
MIC [22]: 3.3 µM (≈ 7.99 µg/mL)
MIC [23]: ≥ 52.9 µM
MIC (Serratia marcescens): ≥ 52.9 µM
MIC [24]: > 52.9 µM
MIC (Staphylococcus aureus): > 52.9 µM
MIC [25]: > 52.9 µM
MIC [26]: ≥ 52.9 µM
MIC [27]: ≥ 52.9 µM
MIC (Staphylococcus hominis): ≥ 52.9 µM
MIC [28]: ≥ 52.9 µM
MIC [29]: ≥ 52.9 µM
MIC (Streptococcus agalactiae): ≥ 52.9 µM
Compound: CC[C@H](C)[C@H](NC(=O)[C@@H](NC(=O)[C@@H]1CCCN1C(=O)[C@@H](NC(=O)[C@@H]1CCCN1C(=O)[C@H](CCCCN)NC(=O)[C@H](CCCCN)NC(=O)[C@H](CO)NC(=O)CN)C(C)C)[C@@H](C)CC)C(=O)N[C@@H](Cc1ccc(O)cc1)C(=O)N[C@H]1CSSC[C@@H](C(=O)N[C@@H](CCC(N)=O)C(=O)N[C@@H](CCCN=C(N)N)C(=O)N[C@@H](CCSC)C(=O)O)NC(=O)[C@H](CCCCN)NC(=O)CNC(=O)[C@H](CO)NC(=O)[C@H](CCCN=C(N)N)NC(=O)[C@H](CCCN=C(N)N)NC(=O)[C@H](CC(N)=O)NC1=O [GSKKPVPIIYCNRRSGKCQRM]

MIC [30]: ≥ 43 µM
MIC [31]: ≥ 43 µM
MIC [32]: ≥ 43 µM
MIC [33]: ≥ 43 µM
Compound: CC(C)C[C@H](NC(=O)[C@H](CCCCN)NC(=O)[C@H](CCCCN)NC(=O)[C@H](CCCCN)NC(=O)[C@H](CC(C)C)NC(=O)[C@H](CCCCN)NC(=O)[C@H](CCCCN)NC(=O)[C@H](Cc1c[nH]c2ccccc12)NC(=O)[C@H](CCCCN)NC(=O)[C@H](CCCCN)NC(=O)[C@H](CCCCN)NC(=O)[C@H](CC(C)C)NC(=O)[C@H](CCCCN)NC(=O)[C@H](CCCCN)NC(=O)[C@H](CC(C)C)NC(=O)[C@H](CCCCN)NC(=O)[C@@H](N)CCCCN)C(=O)N[C@@H](CCCCN)C(=O)O [KKLKKLKKKWKKLKKKLK]
